Source: ChEMBL document CHEMBL3596148, “Meridianin derivatives as potent Dyrk1A inhibitors and neuroprotective agents” (Bioorg Med Chem Lett, 2015)

Experiments:
[1] = target: Vascular endothelial growth factor receptor 1 (Homo sapiens) (UniProt P17948); assay: Inhibition of VEGFR1 (unknown origin) at 0.5 uM relative to control
[2] = target: RAC-beta serine/threonine-protein kinase (Homo sapiens) (UniProt P31751); assay: Inhibition of PKBbeta (unknown origin) at 0.5 uM relative to control
SH-SY5Y [3] = assay: cells; conditions: Homo sapiens, 24 h
[4] = Cytotoxicity against human SH-SY5Y cells assessed as cell viability at 30 uM after 24 hrs by MTT assay relative to control; assay type: cell-based; conditions: read-out: Activity
[5] = target: T1, Dual specificity tyrosine-phosphorylation-regulated kinase 3 (Homo sapiens, UniProt O43781); assay: Inhibition of Dyrk3 (unknown origin) using Woodtide as substrate after 30 mins by P81 membrane assay in presence of [33P]-g-ATP
T1 sequence (O43781 whole entry): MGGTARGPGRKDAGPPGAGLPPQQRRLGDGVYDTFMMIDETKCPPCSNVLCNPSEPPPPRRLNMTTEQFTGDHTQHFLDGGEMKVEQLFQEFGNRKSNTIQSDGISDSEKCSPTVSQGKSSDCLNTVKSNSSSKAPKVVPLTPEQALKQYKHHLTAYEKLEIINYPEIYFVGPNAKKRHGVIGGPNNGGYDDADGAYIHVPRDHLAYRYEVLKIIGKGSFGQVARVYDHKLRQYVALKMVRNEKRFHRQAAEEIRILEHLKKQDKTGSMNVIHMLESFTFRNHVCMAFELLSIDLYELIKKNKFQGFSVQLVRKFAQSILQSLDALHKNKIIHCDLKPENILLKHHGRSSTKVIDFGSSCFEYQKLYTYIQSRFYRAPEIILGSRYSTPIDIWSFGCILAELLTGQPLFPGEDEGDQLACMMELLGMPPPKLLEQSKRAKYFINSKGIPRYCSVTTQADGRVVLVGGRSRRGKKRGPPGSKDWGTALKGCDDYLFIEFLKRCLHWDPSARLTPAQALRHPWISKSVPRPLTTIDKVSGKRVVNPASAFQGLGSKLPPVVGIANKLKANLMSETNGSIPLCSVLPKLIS

[6] = target: Protein kinase C alpha type (Homo sapiens) (UniProt P17252); assay: Inhibition of PKCalpha (unknown origin) at 0.5 uM relative to control
[7] = target: RAC-alpha serine/threonine-protein kinase (Homo sapiens) (UniProt P31749); assay: Inhibition of PKBalpha (unknown origin) at 0.5 uM relative to control
Sequence of RAC-alpha serine/threonine-protein kinase (Homo sapiens) (P31749 whole entry): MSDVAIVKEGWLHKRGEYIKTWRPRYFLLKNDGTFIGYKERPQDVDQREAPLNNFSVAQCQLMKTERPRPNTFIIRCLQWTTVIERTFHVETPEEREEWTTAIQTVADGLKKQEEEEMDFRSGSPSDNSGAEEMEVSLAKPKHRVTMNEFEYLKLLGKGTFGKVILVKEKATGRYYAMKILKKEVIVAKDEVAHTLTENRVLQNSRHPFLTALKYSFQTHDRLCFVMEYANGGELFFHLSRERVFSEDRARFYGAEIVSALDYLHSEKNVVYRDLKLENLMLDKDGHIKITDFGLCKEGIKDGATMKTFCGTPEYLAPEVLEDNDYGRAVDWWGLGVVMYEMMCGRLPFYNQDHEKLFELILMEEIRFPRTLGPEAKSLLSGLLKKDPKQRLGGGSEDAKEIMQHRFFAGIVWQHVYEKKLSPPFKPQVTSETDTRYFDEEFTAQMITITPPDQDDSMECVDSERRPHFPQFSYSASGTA

[8] = target: Cyclin-dependent kinase 9 (Homo sapiens) (UniProt P50750); assay: Inhibition of CDK9 (unknown origin) at 0.5 uM relative to control
Sequence of Cyclin-dependent kinase 9 (Homo sapiens) (P50750 whole entry): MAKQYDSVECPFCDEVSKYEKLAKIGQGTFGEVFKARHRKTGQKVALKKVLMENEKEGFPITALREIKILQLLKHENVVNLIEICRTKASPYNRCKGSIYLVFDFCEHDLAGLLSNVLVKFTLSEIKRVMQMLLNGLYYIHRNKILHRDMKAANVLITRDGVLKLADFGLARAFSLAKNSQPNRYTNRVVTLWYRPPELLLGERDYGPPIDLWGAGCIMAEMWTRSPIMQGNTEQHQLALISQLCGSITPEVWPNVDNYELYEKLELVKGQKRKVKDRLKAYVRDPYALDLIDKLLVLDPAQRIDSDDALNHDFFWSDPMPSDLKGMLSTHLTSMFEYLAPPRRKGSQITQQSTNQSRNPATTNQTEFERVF

SH-SY5Y [9] = assay: Neuroprotective activity against glutamate-induced neurotoxicity in human SH-SY5Y cells assessed as cell viability at 50 uM incubated for 30 mins prior to glutamate challenge measured after 24 hrs by MTT assay (reference value: 73.8 +/- 4.5%); assay type: functional; conditions: read-out: Activity
[10] = target: T2, Inhibitor of nuclear factor kappa-B kinase subunit beta (Homo sapiens) (UniProt O14920); assay: Inhibition of IKKbeta (unknown origin) at 0.5 uM relative to control
T2 sequence (whole entry): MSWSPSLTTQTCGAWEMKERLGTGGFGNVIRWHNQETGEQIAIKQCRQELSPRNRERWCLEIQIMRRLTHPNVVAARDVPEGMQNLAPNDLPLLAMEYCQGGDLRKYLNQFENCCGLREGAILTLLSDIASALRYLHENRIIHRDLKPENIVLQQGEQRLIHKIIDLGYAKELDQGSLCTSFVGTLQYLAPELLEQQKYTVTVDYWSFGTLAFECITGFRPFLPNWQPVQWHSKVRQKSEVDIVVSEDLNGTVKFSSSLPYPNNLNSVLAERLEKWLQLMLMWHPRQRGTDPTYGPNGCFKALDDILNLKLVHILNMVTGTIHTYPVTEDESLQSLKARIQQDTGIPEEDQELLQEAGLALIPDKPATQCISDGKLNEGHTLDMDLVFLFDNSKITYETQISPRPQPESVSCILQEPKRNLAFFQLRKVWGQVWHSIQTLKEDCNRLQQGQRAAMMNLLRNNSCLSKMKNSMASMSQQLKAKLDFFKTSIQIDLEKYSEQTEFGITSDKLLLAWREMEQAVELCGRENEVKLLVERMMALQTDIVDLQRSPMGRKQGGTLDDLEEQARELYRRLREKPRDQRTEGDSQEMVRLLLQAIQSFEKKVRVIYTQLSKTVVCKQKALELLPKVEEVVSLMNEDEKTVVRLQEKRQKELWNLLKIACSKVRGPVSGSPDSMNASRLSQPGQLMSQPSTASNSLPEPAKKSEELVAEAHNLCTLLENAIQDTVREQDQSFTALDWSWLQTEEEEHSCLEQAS

[11] = target: T3, Dual specificity tyrosine-phosphorylation-regulated kinase 2 (Homo sapiens, UniProt Q92630); assay: Inhibition of Dyrk2 (unknown origin) using Woodtide as substrate after 30 mins by P81 membrane assay in presence of [33P]-g-ATP
T3 sequence (Q92630 whole entry): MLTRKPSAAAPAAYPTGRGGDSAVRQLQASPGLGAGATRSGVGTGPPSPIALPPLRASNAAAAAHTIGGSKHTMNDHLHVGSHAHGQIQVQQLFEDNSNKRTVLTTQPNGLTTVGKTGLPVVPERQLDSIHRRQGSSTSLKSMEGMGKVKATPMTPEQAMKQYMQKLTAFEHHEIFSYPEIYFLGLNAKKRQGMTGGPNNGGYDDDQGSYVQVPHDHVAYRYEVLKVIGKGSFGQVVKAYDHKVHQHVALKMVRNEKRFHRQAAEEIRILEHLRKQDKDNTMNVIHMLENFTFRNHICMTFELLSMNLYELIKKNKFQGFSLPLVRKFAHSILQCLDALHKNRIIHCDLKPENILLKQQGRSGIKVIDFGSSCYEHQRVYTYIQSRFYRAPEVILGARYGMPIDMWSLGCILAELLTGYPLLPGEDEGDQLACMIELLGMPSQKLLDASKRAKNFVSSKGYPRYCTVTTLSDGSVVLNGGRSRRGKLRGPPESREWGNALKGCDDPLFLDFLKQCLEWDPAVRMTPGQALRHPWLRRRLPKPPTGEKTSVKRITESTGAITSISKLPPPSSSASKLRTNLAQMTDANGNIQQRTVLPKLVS

Sequence of Vascular endothelial growth factor receptor 1 (Homo sapiens) (P17948 whole entry): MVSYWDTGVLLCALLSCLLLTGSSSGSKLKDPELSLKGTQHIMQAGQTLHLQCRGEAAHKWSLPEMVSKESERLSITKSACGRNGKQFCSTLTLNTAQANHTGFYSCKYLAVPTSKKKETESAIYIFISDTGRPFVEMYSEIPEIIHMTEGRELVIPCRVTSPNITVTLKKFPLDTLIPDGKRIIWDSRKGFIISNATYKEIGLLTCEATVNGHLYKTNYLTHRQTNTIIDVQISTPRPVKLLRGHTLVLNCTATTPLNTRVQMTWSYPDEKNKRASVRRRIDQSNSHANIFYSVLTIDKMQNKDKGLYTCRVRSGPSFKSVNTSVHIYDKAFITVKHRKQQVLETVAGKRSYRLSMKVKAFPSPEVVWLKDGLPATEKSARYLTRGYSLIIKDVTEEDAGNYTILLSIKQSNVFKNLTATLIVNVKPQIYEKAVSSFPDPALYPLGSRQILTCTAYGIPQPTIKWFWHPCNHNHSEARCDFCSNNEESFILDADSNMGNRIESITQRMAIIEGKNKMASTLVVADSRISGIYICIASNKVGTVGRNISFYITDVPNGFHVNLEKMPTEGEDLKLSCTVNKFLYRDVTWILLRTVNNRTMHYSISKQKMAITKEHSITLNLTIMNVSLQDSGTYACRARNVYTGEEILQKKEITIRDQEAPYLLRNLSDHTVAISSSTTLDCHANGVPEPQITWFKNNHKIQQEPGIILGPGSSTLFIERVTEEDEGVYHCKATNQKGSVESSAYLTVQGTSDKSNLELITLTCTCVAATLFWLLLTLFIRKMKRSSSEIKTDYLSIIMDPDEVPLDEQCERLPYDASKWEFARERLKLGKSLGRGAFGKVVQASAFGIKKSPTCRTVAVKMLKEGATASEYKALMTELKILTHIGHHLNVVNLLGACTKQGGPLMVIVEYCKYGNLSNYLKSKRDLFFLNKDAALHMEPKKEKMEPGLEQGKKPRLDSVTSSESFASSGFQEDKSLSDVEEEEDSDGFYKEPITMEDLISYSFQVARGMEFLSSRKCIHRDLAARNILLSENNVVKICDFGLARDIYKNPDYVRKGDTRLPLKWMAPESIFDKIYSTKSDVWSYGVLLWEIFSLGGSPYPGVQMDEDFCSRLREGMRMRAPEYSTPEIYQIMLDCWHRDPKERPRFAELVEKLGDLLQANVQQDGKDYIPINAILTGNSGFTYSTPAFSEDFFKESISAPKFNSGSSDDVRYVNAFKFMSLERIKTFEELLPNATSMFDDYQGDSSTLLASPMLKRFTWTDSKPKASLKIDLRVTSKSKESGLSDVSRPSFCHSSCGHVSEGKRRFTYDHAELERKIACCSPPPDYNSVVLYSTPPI
Sequence of RAC-beta serine/threonine-protein kinase (Homo sapiens) (P31751 whole entry): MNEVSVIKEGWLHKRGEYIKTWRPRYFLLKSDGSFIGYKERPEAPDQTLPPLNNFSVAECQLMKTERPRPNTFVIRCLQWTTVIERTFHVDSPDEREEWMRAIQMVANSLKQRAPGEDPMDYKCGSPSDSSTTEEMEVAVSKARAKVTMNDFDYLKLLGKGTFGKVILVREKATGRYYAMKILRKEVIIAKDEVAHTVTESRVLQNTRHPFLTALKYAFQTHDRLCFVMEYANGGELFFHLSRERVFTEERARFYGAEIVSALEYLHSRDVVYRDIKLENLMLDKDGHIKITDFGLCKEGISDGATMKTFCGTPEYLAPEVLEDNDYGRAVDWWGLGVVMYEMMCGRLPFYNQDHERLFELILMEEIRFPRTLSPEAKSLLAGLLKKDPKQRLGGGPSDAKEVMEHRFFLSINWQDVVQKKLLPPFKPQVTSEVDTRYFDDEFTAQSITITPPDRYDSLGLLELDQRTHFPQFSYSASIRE

inhibition [1]: 0% | inhibition [2]: 12.6% | IC50 (SH-SY5Y [3]): > 100 µM | IC50 [5]: 2.2 µM | inhibition [6]: 26.5% | inhibition [7]: 16.4% | inhibition [8]: 12.6% | inhibition [10]: 7.8% | IC50 [11]: 1.4 µM
SMILES: Nc1nccc(-c2cn(C(=O)N3CCOCC3)c3ccc(Br)cc23)n1
viability at 24 h, 30 µM [4]: 87% | viability at 50 µM (SH-SY5Y [9]): 86.4%
